Laboratory results reported in ChEMBL document CHEMBL5321285 (J Med Chem, 2023).
In brackets after ≈: the same amount, converted by molar mass. Activity calls are given as the source filed them. The calls are words filed in the database; no cut-off is given here.

How the values were obtained:
[1] = Drug concentration in Wistar rat plasma at 10 mg/kg, po measured for 10 mins by UPLC-MS/MS analysis; type: ADME, organism-based
Homo sapiens = organism: Homo sapiens; experiment: Selectivity ratio of Ki for displacement of [3H]-(+)-pentazocine from human sigma1 receptor transfected in HEK293 cell membranes assessed as inhibition constant to Ki for displacement of [3H]-1,3-di-O-tolylguanidine from human sigma 2 receptor/TMEM97 transfected in sigma 1 receptor knockout HEK293 cell membranes assessed as inhibition constant
[2] = Lipophilicity, logP of compound; type: physicochemical; details: octanol/water
Cytochrome P450 2C19 = Cytochrome P450 2C19 (Homo sapiens, UniProt P33261); experiment: Inhibition of CYP2C19 in human liver microsomes using S mephenytoin as substrate incubated for 20 mins by UPLC-MS/MS analysis; type: ADME, Microsome
[3] = Tmax in Wistar rat at 1 mg/kg, iv by UPLC-MS/MS analysis; type: ADME, organism-based; details: in vivo
[4] = Half life in Wistar rat at 1 mg/kg, iv by UPLC-MS/MS analysis; type: ADME, organism-based; details: in vivo
Cytochrome P450 1A2 = target: T1, Cytochrome P450 1A2 (Homo sapiens, UniProt P05177); experiment: Inhibition of CYP1A2 in human liver microsomes using phenacetin as substrate incubated for 20 mins by UPLC-MS/MS analysis; type: ADME, Microsome
T1 sequence (P05177 whole entry): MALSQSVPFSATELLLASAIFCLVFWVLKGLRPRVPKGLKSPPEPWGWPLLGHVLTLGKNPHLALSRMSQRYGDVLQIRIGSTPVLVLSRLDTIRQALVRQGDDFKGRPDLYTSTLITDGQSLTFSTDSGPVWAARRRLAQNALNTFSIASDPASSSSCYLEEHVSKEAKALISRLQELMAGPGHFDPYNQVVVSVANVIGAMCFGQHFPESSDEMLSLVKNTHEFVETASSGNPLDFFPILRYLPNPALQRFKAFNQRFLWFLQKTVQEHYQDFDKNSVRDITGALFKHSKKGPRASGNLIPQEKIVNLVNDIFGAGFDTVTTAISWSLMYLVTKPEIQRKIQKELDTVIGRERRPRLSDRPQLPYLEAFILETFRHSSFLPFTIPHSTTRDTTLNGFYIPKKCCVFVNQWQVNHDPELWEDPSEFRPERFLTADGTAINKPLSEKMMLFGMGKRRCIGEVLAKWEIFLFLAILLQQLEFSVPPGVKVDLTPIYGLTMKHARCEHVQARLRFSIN

[5] = Cmax in Wistar rat at 1 mg/kg, iv by UPLC-MS/MS analysis; type: ADME, organism-based; set-up: dose 1 mg/kg, route iv; details: in vivo
[6] = Clearance in Wistar rat at 1 mg/kg, iv by UPLC-MS/MS analysis; type: ADME, organism-based; details: in vivo
[7] = Apparent permeability across apical to basolateral side in human Caco-2 cells incubated for 2 hrs by UPLC-MS/MS analysis; type: ADME, cell-based
Cytochrome P450 2C9 = Cytochrome P450 2C9 (Homo sapiens, UniProt P11712); experiment: Inhibition of CYP2C9 in human liver microsomes using tolbutamide as substrate incubated for 20 mins by UPLC-MS/MS analysis; type: ADME, Microsome
[8] = Cmax in Wistar rat at 10 mg/kg, po by UPLC-MS/MS analysis; type: ADME, organism-based; set-up: dose 10 mg/kg, route po; details: in vivo
[9] = Metabolic stability in rat liver microsome assessed as intrinsic clearance incubated upto 60 mins in presence of NADPH regenerating system by UPLC-MS/MS analysis; type: ADME; details: liver microsomes, read-out: CLH
[10] = Metabolic stability in mouse liver microsome assessed as parent compound remaining at 1 uM measured after 1 hr in presence of NADPH regenerating system by UPLC-MS/MS analysis; type: ADME; details: liver microsomes, read-out: Stability
Cytochrome P450 2D6 = Cytochrome P450 2D6 (Homo sapiens, UniProt P10635); experiment: Inhibition of CYP2D6 in human liver microsomes using bufuralol as substrate incubated for 20 mins by UPLC-MS/MS analysis; type: ADME, Microsome
[11] = Dissociation constant, pKa of the compound; type: physicochemical
[12] = target: Sigma intracellular receptor 2 (Homo sapiens, UniProt Q5BJF2); experiment: Displacement of [3H]-1,3-di-O-tolylguanidine from human sigma 2 receptor/TMEM97 transfected in sigma 1 receptor knockout HEK293 cell membranes assessed as inhibition constant measured after 120 mins by microbeta scintillation counting analysis; set-up: species or system Cell membrane
[13] = AUC in Wistar rat at 1 mg/kg, iv by UPLC-MS/MS analysis; type: ADME, organism-based; set-up: dose 1 mg/kg, route iv; details: in vivo
Rattus norvegicus = experiment: Anti-alzheimer activity against amyloid beta peptide-induced cognitive impairment in Wistar rat model at 10 mg/kg, po measured for 10 days; type: functional, organism-based; details: time 10.0 day
Cytochrome P450 3A4 = Cytochrome P450 3A4 (Homo sapiens, UniProt P08684); experiment: Inhibition of CYP3A4 in human liver microsomes using testosterone as substrate incubated for 20 mins by UPLC-MS/MS analysis; type: ADME, Microsome
[14] = target: Sigma non-opioid intracellular receptor 1 (Homo sapiens, UniProt Q99720); experiment: Displacement of [3H]-(+)-pentazocine from human sigma1 receptor transfected in HEK293 cell membranes assessed as inhibition constant incubated for 120 mins in presence of haloperidol by microbeta scintillation counter analysis; set-up: species or system Cell membrane
[15] = Metabolic stability in rat liver microsome assessed as parent compound remaining at 1 uM measured after 1 hr in presence of NADPH regenerating system by UPLC-MS/MS analysis; type: ADME; details: liver microsomes, read-out: Stability
[16] = Volume of distribution at steady state in Wistar rat at 1 mg/kg, iv by UPLC-MS/MS analysis; type: ADME, organism-based; details: in vivo, read-out: Vdss
[17] = Ratio AUC in Wistar rat brain to plasma at 10 mg/kg, po measured for 10 mins by UPLC-MS/MS analysis; type: ADME, organism-based; details: brain and plasma, read-out: Ratio AUC
Neuron = experiment: Neuroprotective activity against MPP+ induced rat neurons at 10 uM pretreated with compond for 1 hr followed by MPP+ addition and measured after 48 hrs; type: functional, cell-based; details: time 49.0 hrs
[18] = AUC in Wistar rat at 10 mg/kg, po by UPLC-MS/MS analysis; type: ADME, organism-based; set-up: dose 10 mg/kg, route po; details: in vivo
[19] = Metabolic stability in human liver microsome assessed as intrinsic clearance incubated upto 60 mins in presence of NADPH regenerating system by UPLC-MS/MS analysis; type: ADME; details: liver microsomes, read-out: CLH
[20] = Oral bioavailability in Wistar rat at 10 mg/kg by UPLC-MS/MS analysis; type: ADME, organism-based; details: in vivo
[21] = Efflux ratio of apparent permeability across […] in human Caco-2 cells; type: ADME, cell-based
[22] = Lipophilicity, logD of the compound; type: physicochemical; details: octanol/water
[23] = Metabolic stability in human liver microsome assessed as parent compound remaining at 1 uM measured after 1 hr in presence of NADPH regenerating system by UPLC-MS/MS analysis; type: ADME; details: liver microsomes, read-out: Stability
[24] = target: Voltage-gated inwardly rectifying potassium channel KCNH2 (Homo sapiens, UniProt Q12809); experiment: Inhibition of hERG expressed in CHO cells at holding potential of -80 mV measured for 15 seconds by whole cell patch clamp assay; type: toxicity, cell-based
[25] = Tmax in Wistar rat at 10 mg/kg, po by UPLC-MS/MS analysis; type: ADME, organism-based; details: in vivo
[26] = Metabolic stability in mouse liver microsome assessed as intrinsic clearance incubated upto 60 mins in presence of NADPH regenerating system by UPLC-MS/MS analysis; type: ADME; details: liver microsomes, read-out: CLH
[27] = Solubility of the compound at pH 7.4; type: physicochemical; details: buffer

Sigma non-opioid intracellular receptor 1, sequence (Q99720 whole entry): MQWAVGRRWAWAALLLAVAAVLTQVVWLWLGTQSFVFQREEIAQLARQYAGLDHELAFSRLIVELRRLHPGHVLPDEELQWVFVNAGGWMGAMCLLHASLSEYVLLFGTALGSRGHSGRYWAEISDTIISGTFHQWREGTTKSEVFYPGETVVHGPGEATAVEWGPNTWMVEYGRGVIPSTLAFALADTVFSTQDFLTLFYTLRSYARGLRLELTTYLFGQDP
Voltage-gated inwardly rectifying potassium channel KCNH2, sequence (Q12809 whole entry): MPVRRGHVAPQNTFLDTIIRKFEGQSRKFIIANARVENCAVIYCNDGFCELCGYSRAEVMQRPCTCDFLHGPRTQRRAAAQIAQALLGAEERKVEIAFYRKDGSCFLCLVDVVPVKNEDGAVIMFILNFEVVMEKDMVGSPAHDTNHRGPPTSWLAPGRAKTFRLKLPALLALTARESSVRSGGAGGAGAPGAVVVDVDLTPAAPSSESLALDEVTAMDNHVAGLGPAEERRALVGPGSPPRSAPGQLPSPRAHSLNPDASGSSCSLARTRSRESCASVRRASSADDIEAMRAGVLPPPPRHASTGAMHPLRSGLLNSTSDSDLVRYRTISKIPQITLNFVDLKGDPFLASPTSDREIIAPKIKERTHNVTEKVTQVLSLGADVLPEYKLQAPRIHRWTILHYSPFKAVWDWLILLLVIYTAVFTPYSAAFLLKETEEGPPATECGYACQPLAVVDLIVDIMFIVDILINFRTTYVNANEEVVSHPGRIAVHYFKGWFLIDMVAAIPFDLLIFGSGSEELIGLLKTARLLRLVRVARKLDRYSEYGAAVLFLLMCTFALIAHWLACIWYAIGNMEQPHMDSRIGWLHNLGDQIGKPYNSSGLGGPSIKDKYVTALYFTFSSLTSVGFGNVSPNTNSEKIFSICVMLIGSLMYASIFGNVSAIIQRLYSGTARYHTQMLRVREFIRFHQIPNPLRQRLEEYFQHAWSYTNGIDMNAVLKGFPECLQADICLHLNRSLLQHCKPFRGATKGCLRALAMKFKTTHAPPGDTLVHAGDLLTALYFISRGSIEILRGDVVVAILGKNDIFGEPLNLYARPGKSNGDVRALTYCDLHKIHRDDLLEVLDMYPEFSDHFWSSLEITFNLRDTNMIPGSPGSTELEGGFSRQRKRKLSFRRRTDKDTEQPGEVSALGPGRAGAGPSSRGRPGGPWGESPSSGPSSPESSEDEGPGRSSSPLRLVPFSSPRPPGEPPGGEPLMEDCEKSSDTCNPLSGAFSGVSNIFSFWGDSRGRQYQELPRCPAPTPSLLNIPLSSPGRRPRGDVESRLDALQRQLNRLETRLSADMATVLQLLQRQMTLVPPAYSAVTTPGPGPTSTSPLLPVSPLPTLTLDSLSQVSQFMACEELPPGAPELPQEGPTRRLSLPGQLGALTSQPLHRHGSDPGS
Sigma intracellular receptor 2, sequence (Q5BJF2 whole entry): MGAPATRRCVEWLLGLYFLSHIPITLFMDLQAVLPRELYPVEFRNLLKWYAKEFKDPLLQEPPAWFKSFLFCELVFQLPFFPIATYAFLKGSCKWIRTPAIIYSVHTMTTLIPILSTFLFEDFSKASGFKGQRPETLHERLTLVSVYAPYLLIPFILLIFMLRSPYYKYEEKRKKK
Cytochrome P450 3A4, sequence (P08684 whole entry): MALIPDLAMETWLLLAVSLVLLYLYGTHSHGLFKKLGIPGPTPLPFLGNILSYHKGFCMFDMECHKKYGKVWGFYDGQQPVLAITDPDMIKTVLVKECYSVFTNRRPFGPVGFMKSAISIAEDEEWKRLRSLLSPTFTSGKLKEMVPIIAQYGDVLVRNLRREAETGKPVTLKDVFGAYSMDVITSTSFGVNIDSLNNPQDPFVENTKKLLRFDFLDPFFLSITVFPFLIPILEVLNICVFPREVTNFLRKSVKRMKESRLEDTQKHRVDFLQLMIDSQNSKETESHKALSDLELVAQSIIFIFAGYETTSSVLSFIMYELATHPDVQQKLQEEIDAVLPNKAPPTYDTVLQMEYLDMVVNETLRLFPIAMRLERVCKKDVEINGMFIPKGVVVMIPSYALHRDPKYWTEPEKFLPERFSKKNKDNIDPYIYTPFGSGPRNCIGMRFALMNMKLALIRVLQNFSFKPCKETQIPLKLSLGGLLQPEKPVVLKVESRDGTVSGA
Cytochrome P450 2C19, sequence (P33261 whole entry): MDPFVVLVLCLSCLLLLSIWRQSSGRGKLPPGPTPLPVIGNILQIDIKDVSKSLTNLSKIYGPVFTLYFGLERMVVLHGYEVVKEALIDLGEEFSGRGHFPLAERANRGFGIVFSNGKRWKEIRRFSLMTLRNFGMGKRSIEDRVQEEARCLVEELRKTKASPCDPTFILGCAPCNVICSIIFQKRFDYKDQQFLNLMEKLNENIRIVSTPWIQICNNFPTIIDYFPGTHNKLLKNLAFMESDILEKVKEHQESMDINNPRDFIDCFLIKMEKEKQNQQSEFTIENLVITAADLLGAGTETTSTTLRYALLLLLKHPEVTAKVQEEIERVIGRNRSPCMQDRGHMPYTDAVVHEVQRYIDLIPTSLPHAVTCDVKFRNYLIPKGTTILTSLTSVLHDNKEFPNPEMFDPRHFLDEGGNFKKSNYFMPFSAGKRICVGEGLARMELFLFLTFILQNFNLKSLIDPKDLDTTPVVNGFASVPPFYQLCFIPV
Cytochrome P450 2C9, sequence (P11712 whole entry): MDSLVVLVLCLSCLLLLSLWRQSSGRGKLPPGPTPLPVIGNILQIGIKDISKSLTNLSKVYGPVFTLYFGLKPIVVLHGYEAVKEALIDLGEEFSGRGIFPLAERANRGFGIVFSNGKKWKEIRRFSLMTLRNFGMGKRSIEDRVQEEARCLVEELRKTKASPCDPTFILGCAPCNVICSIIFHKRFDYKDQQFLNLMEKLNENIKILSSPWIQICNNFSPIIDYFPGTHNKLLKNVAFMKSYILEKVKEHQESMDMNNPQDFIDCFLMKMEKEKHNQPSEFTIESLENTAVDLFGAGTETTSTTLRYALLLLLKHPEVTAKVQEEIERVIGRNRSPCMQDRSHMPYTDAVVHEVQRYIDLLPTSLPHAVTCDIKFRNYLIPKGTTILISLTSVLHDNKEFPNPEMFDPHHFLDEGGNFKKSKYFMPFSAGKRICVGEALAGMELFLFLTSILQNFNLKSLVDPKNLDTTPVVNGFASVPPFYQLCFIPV
Cytochrome P450 2D6, sequence (P10635 whole entry): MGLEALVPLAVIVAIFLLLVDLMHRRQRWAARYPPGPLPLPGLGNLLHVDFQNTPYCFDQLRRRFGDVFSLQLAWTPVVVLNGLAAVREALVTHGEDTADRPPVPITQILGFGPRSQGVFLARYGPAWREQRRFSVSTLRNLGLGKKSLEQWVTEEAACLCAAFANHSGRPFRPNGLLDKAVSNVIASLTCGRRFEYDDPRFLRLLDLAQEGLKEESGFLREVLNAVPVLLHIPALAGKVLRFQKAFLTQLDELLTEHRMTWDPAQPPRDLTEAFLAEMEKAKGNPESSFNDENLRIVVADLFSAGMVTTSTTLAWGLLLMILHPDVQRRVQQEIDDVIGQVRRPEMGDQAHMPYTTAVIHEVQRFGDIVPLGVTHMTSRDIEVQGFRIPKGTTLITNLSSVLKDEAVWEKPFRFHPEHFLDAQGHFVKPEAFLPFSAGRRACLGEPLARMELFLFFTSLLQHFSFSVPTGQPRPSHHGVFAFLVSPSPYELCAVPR

`CCc1ncc(-c2cc(C)no2)c(C2CCN(CC(=O)N3CCOCC3)CC2)n1` gave a concentration at 10 min [1] of 250 ng/g, a Ratio Ki (Homo sapiens) of 137 and a logP [2] of 1.7. For the same compound, the IC50 (Cytochrome P450 2C19) was greater than 900 µM, the Tmax [3] was 18 min and the half-life [4] was 60 min. The IC50 (Cytochrome P450 1A2) was greater than 900 µM, the Cmax [5] was 2020 ng/mL and the clearance [6] was 28.3 mL/min/kg. It also gave a Papp A→B at 2 h [7] of 17.7 ×10⁻⁶ cm/s, an IC50 (Cytochrome P450 2C9) of 600 µM and a Cmax [8] of 900 ng/mL. The microsomal CLint [9] was 1.5 µL/min/mg, the remaining at 1 h, 1 µM [10] was 93% and the IC50 (Cytochrome P450 2D6) was 133 µM. For the same compound, the pKa [11] was 7.4, the Ki [12] was 0.013 µM and the AUC [13] was 593 ng·h/mL. For the same compound, the Activity (Rattus norvegicus) was “Active”, the IC50 (Cytochrome P450 3A4) was greater than 900 µM and the Ki [14] was 1.78 µM. It also gave a remaining at 1 h, 1 µM [15] of 95%, a Vd [16] of 0.8 L/kg and a Kp at 10 min [17] of 0.41. The Activity (Neuron) was “Active”, the AUC [18] was 3000 ng·h/mL and the microsomal CLint [19] was 1.6 µL/min/mg. The bioavailability [20] was 51%, the Ratio [21] was 1.2 and the logD [22] was 1.4. The remaining at 1 h, 1 µM [23] was 93%, the IC50 [24] was greater than 10 µM and the Tmax [25] was 48 min. It also gave a microsomal CLint [26] of 2.8 µL/min/mg and a solubility [27] of 7280 µg/mL (≈ 18.2 mM).
